“Also recorded” adds a separate entry of the source.
Experiments:
5HT2A sensor [1] = test: 5HT2A sensor assay, agonist mode (sLight1.3s HEK293T stable line); format: cell-based; conditions: for activation of 5HT2A sensor assay in agonist mode at 10 μM: 10 μM of compound (FIG. 11)
Description: In some embodiments, hallucinogenic potential of a compound of the present invention is determined in vitro. In some embodiments, hallucinogenic potential of a compound of the present invention is determined using a 5HT2A sensor assay. In some embodiments, the 5HT2A sensor assay is in an agonist mode or an antagonist mode. In some embodiments, the 5HT2A sensor assay is in an agonist mode.
(§1) 5HT2A Sensor Assays. HEK293T (ATCC) 5HT2A sensor stable line (sLight1.3s) was generated via lentiviral transduction of HIV-EF1α-sLight1.3 and propagated from a single colony. Lentivirus was produced using 2nd generation lentiviral plasmids pHIV-EF1α-sLight1.3, pHCMV-G, and pCMV-deltaR8.2.
(§2) For the screening of the 41 compounds, sLight1.3s cells were plated in 96-well plates at a density of 40000 24-hours prior to imaging. On the day of imaging, compounds solubilized in DMSO were diluted from the 100 mM stock solution to working concentrations of 1 mM, 100 μM and 1 μM with a DMSO concentration of 1%. Immediately prior to imaging, cells growing in DMEM (Gibco) were washed 2× with HBSS (Gibco) and in agonist mode 180 μL of HBSS or in antagonist mode 160 μL of HBSS was added to each well after the final wash. For agonist mode, images were taken before and after the addition of the 20 μL compound working solution into the wells containing 180 μL HBSS. This produced final compound concentrations of 100 μM, 10 μM and 100 nM with a DMSO concentration of 0.1%. For antagonist mode, images were taken before and after addition of 20 μL of 900 nM 5-HT and again after 20 μL of the compound working solutions to produce final concentrations of 100 nM for 5HT and 100 μM, 10 μM and 100 nM for the compounds with a DMSO concentration of 0.1%. Each compound was tested in triplicates (3 wells) for each concentration (100 μM, 10 μM and 100 nM). Additionally, within each plate, 100 nM 5HT and 0.1% DMSO controls were also imaged.
(§3) Imaging was performed using the Leica DMi8 inverted microscope with a 40× objective using the FITC preset with an excitation of 460 nm and emission of 512-542 nm. For each well, the cellular membrane where the 5HT2A sensor is targeted was autofocused using the adaptive focus controls and 5 images from different regions within the well were taken with each image processed from a 2×2 binning.
(§4) For data processing, the membranes from each image was segmented and analyzed using a custom algorithm written in MATLAB producing a single raw fluorescence intensity value. For each well the 5 raw fluorescence intensity values generated from the 5 images were averaged and the change in fluorescence intensity (dFF) was calculated as: dFF=(Fsat−Fapo)/Fapo
(§5) For both agonist and antagonist modes, the fluorescence intensity values before compound addition in HBSS only were used as the Fapo values while the fluorescence intensity values after compound addition were used as the Fsat values.
(§6) For agonist mode, data are as percent activation relative to 5HT, where 0 is the average of the DMSO wells and 100 is the average of the 100 uM 5HT wells. For antagonist mode, the inactivation score was calculated as: Inactivation score=(dFFF(Compound+5HT)−dFF(5HT))/dFF(5HT)

5HT2A sensor [2] = test: 5HT2A sensor assay, antagonist mode (sLight1.3s HEK293T stable line); format: cell-based; conditions: 10 μM of compound (FIG. 13)
Description: In some embodiments, the 5HT2A sensor assay is in an antagonist mode.
as §1, §2, §3, §4, §5, §6

cortical neurons = test: Dendritogenesis assay, Sholl analysis; format: cell-based, rat; conditions: 10 μM; for Emax at 10 µM: Rattus norvegicus, Cortical neurone, Nmax with vehicle (DMSO) = 0% and ketamine = 100%, read-out: % efficacy in sholls; for dendritic arbor complexity / neuronal growth (Nmax of Sholl plots): cortical neurons
Description: Dendritogenesis Assays. Phenotypic screening has historically proven more successful than target-based approaches for identifying drugs with novel mechanisms of action. Having established a simple and robust method for accessing isoDMT analogs, tested next was their ability to increase dendritic arbor complexity in cultures of cortical neurons using a phenotypic assay. Following treatment, neurons were fixed and visualized using an antibody against MAP2—a cytoskeletal protein localized to the somatodendritic compartment of neurons. Sholl analysis was then performed, and the maximum number of crossings (Nmax) was used as a quantitative metric of dendritic arbor complexity. For statistical comparisons between specific compounds, the raw Nmax values were compared. Percent efficacies were determined by setting the Nmax values for the vehicle (DMSO) and positive (ketamine) controls equal to 0% and 100%, respectively.
Animals. For the dendritogenesis experiments, timed pregnant Sprague Dawley rats were obtained from Charles River Laboratories (Wilmington, Mass.). For the head-twitch response assay, male and female C57BL/6J mice were obtained from Jackson Laboratory (Sacramento, Calif.). Mice were housed in a temperature and humidity-controlled room maintained on a 12-h light/dark cycle in groups of 4-5 (same sex). Animals weighed between 17 and 30 g at the time of the experiments. All experimental procedures involving rodents were approved by the UC Davis Institutional Animal Care and Use Committee (IACUC) and adhered to principles described in the National Institutes of Health Guide for the Care and Use of Laboratory Animals. The University of California, Davis and the University of California, San Francisco are accredited by the Association for Assessment and Accreditation of Laboratory Animal Care International (AAALAC).
Dendritogenesis—Sholl Analysis. Dendritogenesis experiments were performed following a previously published method with slight modifications. Neurons were plated in 96-well format (200 μL of media per well) at a density of approximately 15,000 cells/well in Neurobasal (Life Technologies) containing 1% penicillin-streptomycin, 10% heat-inactivated fetal bovine serum, and 0.5 mM glutamine. After 24 h, the medium was replaced with Neurobasal containing 1× B27 supplement (Life Technologies), 1% penicillin-streptomycin, 0.5 mM glutamine, and 12.5 μM glutamate. After 3 days in vitro (DIV3), the cells were treated with compounds. All compounds tested in the dendritogenesis assays were treated at 10 μM unless noted otherwise. Stock solutions of the compounds in DMSO were first diluted 100-fold in Neurobasal before an additional 10-fold dilution into each well (total dilution=1:1000; 0.1% DMSO concentration). Treatments were randomized. After 1 h, the media was removed and replaced with new Neurobasal media containing 1× B27 supplement, 1% penicillin-streptomycin, 0.5 mM glutamine, and 12.5 μM glutamate. The cells were allowed to grow for an additional 71 h. At that time, neurons were fixed by removing 80% of the media and replacing it with a volume of 4% aqueous paraformaldehyde (Alfa Aesar) equal to 50% of the working volume of the well. Then, the cells were incubated at room temperature for 20 min before the fixative was aspirated and each well washed twice with DPBS. Cells were permeabilized using 0.2% Triton X-100 (ThermoFisher) in DPBS for 20 minutes at room temperature without shaking. Plates were blocked with antibody diluting buffer (ADB) containing 2% bovine serum albumin (BSA) in DPBS for 1 h at room temperature. Then, plates were incubated overnight at 4° C. with gentle shaking in ADB containing a chicken anti-MAP2 antibody (1:10,000; EnCor, CPCA-MAP2). The next day, plates were washed three times with DPBS and once with 2% ADB in DPBS. […]

Row | SMILES | activation of 5HT2A sensor assay in agonist mode at 10 μM (5HT2A sensor [1]) | Emax at 10 µM (cortical neurons) | further results
1 | CCN(CC)C(=O)[C@@H]1C=C2c3cccc4[nH]c(Br)c(c34)C[C@H]2N(C)C1 [BOL148, reference compound] | do not activate the 5HT2A sensor assay in agonist mode | – | competition with 5HT binding to 5HT2A, antagonist mode sensor assay at 10 μM (5HT2A sensor [2]): compete with 5HT binding to 5HT2A
2 | CN(C)CCc1c[nH]c2cc(F)ccc12 [Example 29, 2-(6-fluoro-1H-indol-3-yl)-N,N-dimethylethan-1-amine, reference compound] | – | 81% | –
3 | CN(C)CCn1ccc2cc(OCc3ccccc3)ccc21 [Example 9, 2-(5-(benzyloxy)-1H-indol-1-yl)-N,N-dimethylethan-1-amine] | – | 78% | –
4 | O=C(c1ccc(F)cc1)C1CCN(CCn2c(=O)[nH]c3ccccc3c2=O)CC1 [Ketanserin, reference compound] | do not activate the 5HT2A sensor assay in agonist mode | – | competition with 5HT binding to 5HT2A, antagonist mode sensor assay at 10 μM (5HT2A sensor [2]): compete with 5HT binding to 5HT2A
5 | COc1ccc2c(ccn2C[C@@H](C)N(C)C)c1 [Example 32, (R)-1-(5-methoxy-1H-indol-1-yl)-N,N-dimethylpropan-2-amine] | – | 88% | –
6 | CN(C)CCn1ccc2ccc(OCc3ccccc3)cc21 [Example 10, 2-(6-(benzyloxy)-1H-indol-1-yl)-N,N-dimethylethan-1-amine] | – | 65% | –
7 | CN(C)CCn1cccc1 [Example 23, N,N-dimethyl-2-(1H-pyrrol-1-yl)ethan-1-amine] | – | 64% | dendritic arbor complexity / neuronal growth (Nmax of Sholl plots) (cortical neurons): minimal effect on the ability of these molecules to promote neuronal growth
8 | CN(C)CCn1ccc2c(OCc3ccccc3)cccc21 [Example 8, 2-(4-(benzyloxy)-1H-indol-1-yl)-N,N-dimethylethan-1-amine] | – | 38% | –
9 | CN(C)CCn1ccc2cccc(OCc3ccccc3)c21 [Example 11, 2-(7-(benzyloxy)-1H-indol-1-yl)-N,N-dimethylethan-1-amine] | – | 131% | –
10 | CN(C)CCn1ccc2cccc(F)c21 [Example 15, 2-(7-fluoro-1H-indol-1-yl)-N,N-dimethylethan-1-amine] | – | 85% | –
11 | COc1cc(CC(C)N)c(OC)cc1I (stereo not shown) [DOI, reference compound] | activate the 5HT2A sensor assay in agonist mode | – | –
12 | C[C@H](Cn1ccc2cc(F)ccc21)N(C)C [Example 33, (R)-1-(5-fluoro-1H-indol-1-yl)-N,N-dimethylpropan-2-amine] | – | 65% | –
13 | CCN(CC)CCc1c[nH]c2cc(F)ccc12 [Example 6-F-DET, reference compound] | do not activate the 5HT2A sensor assay in agonist mode | – | competition with 5HT binding to 5HT2A, antagonist mode sensor assay at 10 μM (5HT2A sensor [2]): compete with 5HT binding to 5HT2A
14 | CC(C)CCn1ccc2ccccc21 [Example 25, 1-isopentyl-1H-indole] | – | 17% | dendritic arbor complexity / neuronal growth (Nmax of Sholl plots) (cortical neurons): did not promote dendritogenesis
15 | CN(C)CCn1ccc2c(F)cc(F)cc21 [Example 18, 2-(4,6-difluoro-1H-indol-1-yl)-N,N-dimethylethan-1-amine] | – | 62% | –
16 | CN(C)CCn1cc(C(=O)C(=O)N(C)C)c2ccccc21 [Example 21, 2-(1-(2-(dimethylamino)ethyl)-1H-indol-3-yl)-N,N-dimethyl-2-oxoacetamide] | – | 72% | dendritic arbor complexity / neuronal growth (Nmax of Sholl plots) (cortical neurons): well tolerated
17 | CCN(CC)C(=O)[C@@H]1C=C2c3cccc4[nH]cc(c34)C[C@H]2N(C)C1 [LSD, lysergic acid diethylamide, reference compound] | activate the 5HT2A sensor assay in agonist mode | – | activation of 5HT2A sensor assay in agonist mode (dose response) (5HT2A sensor [1]; dose response (FIG. 10)): activate
18 | CN(C)CCc1cn(C)c2ccccc12 [Example 27, N,N-dimethyl-2-(1-methyl-1H-indol-3-yl)ethan-1-amine, reference compound] | – | 73% | dendritic arbor complexity / neuronal growth (Nmax of Sholl plots) (cortical neurons): increase dendritic arbor complexity to a comparable extent as DMT (1); also recorded: increased dendritic arbor complexity to a comparable extent as 1
19 | CN(C)CCn1ccc2cc(F)ccc21 [Example 13, 2-(5-fluoro-1H-indol-1-yl)-N,N-dimethylethan-1-amine] | – | 75% | dendritic arbor complexity / neuronal growth (Nmax of Sholl plots) (cortical neurons): performed identically to 28 and 29
20 | CN(C)CCn1ccc2c(F)cccc21 [Example 12, 2-(4-fluoro-1H-indol-1-yl)-N,N-dimethylethan-1-amine] | – | 37% | –
21 | CN(C)CCn1ccc2cc(F)c(F)cc21 [Example 17, 2-(5,6-difluoro-1H-indol-1-yl)-N,N-dimethylethan-1-amine] | – | 84% | –
22 | CN[C@H](C)Cc1ccc2c(c1)OCO2 [R-MDMA, reference compound] | do not activate the 5HT2A sensor assay in agonist mode | – | –
23 | CNC(C)Cc1ccc2c(c1)OCO2 [L-MDMA, reference compound] | do not activate the 5HT2A sensor assay in agonist mode | – | –
24 | CN(C)CCc1c[nH]c2ccccc12 [Example 1, N,N-dimethyltryptamine, reference compound] | activate the 5HT2A sensor assay in agonist mode | 79% | –

Reference: patent publication US11254640B2, “N-substituted indoles and other heterocycles for treating brain disorders” (The Regents of the University of California, priority 2019, dated 2022)
